Source: US20210308196A1, “COMPOSITIONS AND METHODS TO PROMOTE HOST DEFENSE AND STIMULATE, EXPAND, AND/OR RESET T CELL REPERTOIRES” (EVOLVE BIOSYSTEMS, INC., priority 2018, published 2021)

Key:
[1] = tested on: human colonic mucin glycans; assay: Fecal glycome and colonic mucin-derived O-glycans (nano-HPLC-Chip-TOF MS); format: in vivo
Description: A library of known mucin-specific O-glycans was compiled and used to query untargeted mass spectra of fecal samples.
Analysis of spectra obtained with nano-high performance liquid chromatography-chip/time-of flight mass spectrometry (nano-HPLC-Chip-TOF MS). […] Briefly, the HPLC system used was an Agilent 1200 series unit with a microfluidic chip, which was coupled to an Agilent 6220 series TOF mass spectrometer via chip cube interface. The capillary pump on the chromatography unit loaded the sample onto the 40-nL enrichment column at a flow rate of 4.0 μL/min with a 1-μL injection volume. A nano pump was used for analyte separation on the analytical column, which was […] and packed with porous graphitized carbon. Separation was accomplished using a binary gradient of aqueous solvent A (3% acetonitrile (ACN)/water (v/v) in 0.1% formic acid (FA)) and organic solvent B (90% ACN/water (v/v) in 0.1% FA) using a method developed for HMO separation. The sample was introduced into the TOF mass spectrometer via electrospray ionization, which was tuned and calibrated using a dual nebulizer electrospray source with calibrant ions ranging from m/z 118.086 to 2721.895, and data were collected in the positive mode. These untargeted spectra were reanalyzed in the present study.
Glycan data analysis. The untargeted mass spectra were collected (as above) and analyzed using Agilent MassHunter Work station Data Acquisition version B.02.01 on the nanoHPLC-chip/TOF (Frese et al 2017). The “Find Compounds by Molecular Feature” function of the software was used to identify mucin glycan species within 20 ppm of theoretical masses. Compound abundances were expressed as volume in ion counts that corresponded to absolute abundances of the compounds in each sample. 1HexNAc-1NeuAc, 1HexNAc-1Hex-NeuAc, 2HexNAc-1NeuAc, 2HexNAc-1Hex-1Fuc, 2HexNAc-1Hex-1NeuAc, 2HexNAc-1Hex-2Fuc, 3HexNAc-1Hex-1Fuc, 2HexNAc-1Hex-1Fuc-1NeuAc, 2HexNAc-1Hex-1Fuc-2NeuAc, 3HexNAc-1Hex-2NeuAc and 3HexNAc-1Hex-2Fuc-1NeuAc were monitored as they are discriminitively human colonic glycans. Robbe et al. (2004) Rapid Communications in Mass Spectrometry 18(4): 412-420.
Statistical analysis. Multiple t-tests were carried out with the Holm-Sidak correction in Graph Pad Prism 7 (GraphPad Software, La Jolla, Calif. USA). Pearson and Spearman correlational tests and principle component analyses were performed in R (v 3.4.2). Adonis test was carried out using a weighted UNIFRAC distance matrix (Lozupone et al 2011) in QIIME 1.9.1 (Caporaso et al 2010). […] The total oligosaccharide (OS) compositions of the samples were determined by the untargeted approach of nano-HPLC-Chip-TOF. The compounds were characterized using previously published libraries. Thomsson et al. (2002) Glycobiology 12(1): 1-14; Robbe et al. (2004) Rapid Communications in Mass Spectrometry 18(4): 412-420; Matamoros et al. (2013) Trends in Microbiology 21(4): 167-173; Karav et al. (2016) Applied and Environ. Micro. 82(12): 3622-3630. Among these compositions, free HMO (Frese et al. (2017) mSphere 2(6): e00501-e00517) and mucin OS were found in the infant fecal glycome. The degradation of human colonic mucin glycans by different gut microbiome profiles was determined as the difference between a B. infantis-dominated microbiome and microbiomes with more abundant mucolytic taxa, such as Bacteroidaceae. As target molecules, 1HexNAc-1NeuAc, 1HexNAc-1Hex-NeuAc, 2HexNAc-1NeuAc, 2HexNAc-1Hex-1Fuc, 2HexNAc-1Hex-1NeuAc, 2HexNAc-1 Hex-2Fuc, 3HexNAc-1Hex-1Fuc, 2HexNAc-1Hex-1Fuc-1NeuAc, 2HexNAc-1Hex-1Fuc-2NeuAc, 3HexNAc-1Hex-2NeuAc and 3HexNAc-1Hex-2Fuc-1NeuAc, were selected as typical human colonic mucin glycans, as shown by Robbe et al. (2004) Rapid Communications in Mass Spectrometry 18(4): 412-420.

[2] = Nutritional intervention study on autoimmune/allergic disease (T1D) in breastfed infants; format: in vivo, human; settings: colonized infants
Description: Administration of activated B. infantis to breastfed neonates and infants leads consistently to high levels of B. infantis in the stool.
This is a randomized, double-blinded, placebo-controlled, parallel group study design (See FIG. 15). After the parent/guardian(s) sign the informed consent, infants will be screened for all the eligibility criteria, and if found eligible will be enrolled in the study. Eligible infants must first undergo an HLA genotyping from a cord blood sample collected at birth. Based on their HLA genotype they will be either placed in group 1 (low risk by HLA genotyping) and group 2 (high risk by HLA genotype). Each group will be randomly assigned to the placebo or treatment groups. […] Parent/guardian(s) of the infants will be instructed to maintain breastfeeding (at least 1 feed/day) for at least 6 months, and up to 12 months if possible during the treatment period. Following the 12-month treatment period, individuals will be followed at regular intervals with study visits and assessments. Individuals will be followed until a sufficient number of events (seroconversion to multiple (2) islet autoantibodies) are accumulated to achieve the planned power for the final analysis. […]

Question: Which results are given for “Bifidobacterium longum subsp. infantis EVC001 [B. infantis EVC001]”?
Answer: Number of total OS structures (including isomers and anomers) ([1]; infant feces, FIG. 2A): 360.44±102.52; Number of colonic mucin-derived O-glycan structures ([1]; infant feces, FIG. 2B): 6.33 (±2.24); Relative abundance of colonic mucin-derived O-glycans, number of structures ([1]; infant feces, FIG. 2C): 1.78%±0.385; Colonic mucin-derived O-glycans, proportion of the total OS profile ([1]; infant feces, FIG. 2D): 1.68±1.12%; Glycan 1_0_0_1 (1HexNAc-1NeuAc) Log10 Volume EVC001-fed [Mean (+/− SD)] ([1]; infant feces, neutral mass 512): 5.39; Glycan 1_1_0_1 (1HexNAc-1Hex-1NeuAc) Log10 Volume EVC001-fed [Mean (+/− SD)] ([1]; infant feces, neutral mass 675): 4.01; Glycan 2_0_0_1 (2HexNAc-1NeuAc) Log10 Volume EVC001-fed [Mean (+/− SD)] ([1]; infant feces, neutral mass 716): 0; Glycan 2_1_1_0 (2HexNAc-1Hex-1Fuc) Log10 Volume EVC001-fed [Mean (+/− SD)] ([1]; infant feces, neutral mass 735): 0; Glycan 2_1_0_1 (2HexNAc-1Hex-1NeuAc) Log10 Volume EVC001-fed [Mean (+/− SD)] ([1]; infant feces, neutral mass 878): 5.56; Glycan 2_1_2_0 (2HexNAc-1Hex-2Fuc) Log10 Volume EVC001-fed [Mean (+/− SD)] ([1]; infant feces, neutral mass 879): 5.48; Glycan 3_1_1_0 (3HexNAc-1Hex-1Fuc) Log10 Volume EVC001-fed [Mean (+/− SD)] ([1]; infant feces, neutral mass 936): 5.43; Glycan 2_1_1_1 (2HexNAc-1Hex-1Fuc-1NeuAc) Log10 Volume EVC001-fed [Mean (+/− SD)] ([1]; infant feces, neutral mass 1024): 5.38; Glycan 2_1_1_2 (2HexNAc-1Hex-1Fuc-2NeuAc) Log10 Volume EVC001-fed [Mean (+/− SD)] ([1]; infant feces, neutral mass 1315): 6.68; Glycan 3_1_0_2 (3HexNAc-1Hex-2NeuAc) Log10 Volume EVC001-fed [Mean (+/− SD)] ([1]; infant feces, neutral mass 1372): 5.47; Glycan 3_1_2_1 (3HexNAc-1Hex-2Fuc-1NeuAc) Log10 Volume EVC001-fed [Mean (+/− SD)] ([1]; infant feces, neutral mass 1373): 6.12; Mucin degradation ([1]; supplemented infants compared to the control group): significantly less; Rates of childhood-onset autoimmune and allergic disease [2]: decreases; TReg cell numbers [2]: increases
